In series [1] the target is T1, N-type calcium channels in IMR-32 cells (Homo sapiens, UniProt Q00975).
T1 construct: host or cells: IMR-32 cells differentiated with dibutyryl cAMP and bromodeoxyuridine
Description: N-type Ca2+ channel blocking potency in IMR-32 cells using Indo-1. Type of series: cell-based. Particulars: for IC50: IMR-32 cells; for inhibition at 1 µM / inhibition at 10 µM: IMR-32, IMR-32 cells; for inhibition at 1 µM: read-out: IMR32 % blockage at 1 μM; for inhibition at 10 µM: read-out: IMR32 % blockage at 10 μM. An outline of the steps: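 Differentiated IMR-32 cells loaded with Indo-1 AM were preincubated with compound and 5 μM nitrendipine (L-type block) for 10 min at 30° C in HEPES/Tris pH 7.4 HBSS with 0.5% BSA. Cells were depolarized with KCl/CaCl2, and the 400/490 nm emission ratio rise over basal was measured. IC50 came from a four-parameter logistic fit.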

Series [2] deals with K+ channels in SCG neurons. Nature of the series: Potassium current in superior cervical ganglion neurons (whole-cell voltage clamp). Type of series: cell-based, rat. How it is done: (§1) Electrophysiological techniques were used to measure the effects of experimental compounds on voltage-gated Ca^2+, […] , and K^+ channels. […] Sodium and potassium channel currents were measured from acutely dissociated SCG neurons.
(§2) Dissociation of the neurons from the ganglia was accomplished using a 30 to 45 minute treatment in 0.25% trypsin, similar to methods outlined in Higgins, et al. (see Higgins D. et al. “Tissue culture of mammalian autonomic neurons.” In Banker G. and Goslin K. (Eds), Culturing Nerve Cells, Cambridge, Mass., MIT Press [1991]).
(§3) Ca^2+, Na^+, and K^+ channel currents in SCG neurons were measured using conventional single electrode whole-cell voltage-clamp techniques, outlined in Hamill et al., (see Hamill O. P. et al. “Improved patch-clamp techniques for high resolution current recordings from cells and cell-free membrane patches.”Pflugers Arch., 1981;391:85-100). For Ca^2+ channel experiments, the external bathing solution contained tetraethylammonium chloride (100 mM), choline chloride (52 mM), NaCl (15 mM), HEPES (10 mM), glucose (5.6 mM), CaCl2 (2 mM), and MgCl2 (0.8 mM), pH 7.35 with KOH; with the internal pipette solution containing cesium methane sulfonate (140 mM), EGTA (10 mM), and HEPES (10 mM), supplemented with 5 mM Mg^2+-ATP on the day of the experiment, pH 7.4 with CsOH. For Na^+ and K^+ channel experiments, the external bathing solution contained NaCl (150 mM), KCl (5 mM), MgCl2 (1.1 mM), CaCl2 (2.6 mM), Na-HEPES (10 mM), and glucose (10 mM), pH 7.4; with the internal pipette solution containing KCl (80 mM), K-gluconate (50 mM), HEPES (10 mM), and EGTA (10 mM), pH 7.4 with KOH. Experimental compounds were diluted into the external solution and applied to the soma of cells by local perfusion from large diameter (20-50 μm) glass micropipettes or from a U-tube applicator.
(§4) For Na^+ and K^+ channel currents, following the determination of the I/V relationship for each cell in control solution, currents were evoked from a holding potential between −65 and −55 mV by stepping every 10 sec to a test potential of either 0 mV for Na^+ or +50 mV for K^+ current for a duration of 35 msec. Peak inward current was measured for Na^+ and sustained current for K^+ channel currents. […] Test compounds were applied until steady-state block was achieved. Data were expressed as percent inhibition of control amplitudes for Na^+ and K^+ channel currents.

The test system of series [3] is sound-induced tonic convulsions in DBA/2 mice. Nature of the series: Audiogenic seizure model in DBA/2 mice. The settings on record: Mus musculus, protected/tested, read-out: Number of Mice Protected From Tonic Convulsions (converted); for responders at 30 mg/kg: 30 mg/Kg IV; for responders at 10 mg/kg: 10 mg/Kg IV. In kind it is in vivo. The protocol: Audiogenic Seizure Model in DBA/2 Mice
A compound of the present invention was dissolved in water using 10% (weight/volume) Emulphor (GAF Corp., Wayne, N.J.) surfactant. Substances were administered by intravenous injection into the retro-orbital venous sinus of male mice (3-4 weeks old, Jackson Laboratories, Bar Harbour, Me.). All testing was preformed 15 minutes or 45 minutes after drug injection. Immediately before anticonvulsant testing, mice were placed upon a wire mesh, 4 inches square suspended from a steel rod. The square was slowly inverted through 180 degrees and mice observed for 30 seconds. Any mouse falling from the wire mesh was scored as ataxic.
Mice were placed into an enclosed acrylic plastic chamber (21 cm height, approximately 30 cm diameter) with a high-frequency speaker (4 cm diameter) in the center of the top lid. An audio signal generator (Protek model B-810) was used to produce a continuous sinusoidal tone that Was swept linearly in frequency between 8 kHz and 16 kHz once each 10 msec. The average sound pressure level (SPL) during stimulation was approximately 100 dB at the floor of the chamber. Mice were placed within the chamber and allowed to acclimatize for 1 minute. DBA/2 mice in the vehicle-treated group responded to the sound stimulus (applied until tonic extension occurred, or for a maximum of 60 sec) with a characteristic seizure sequence consisting of wild running followed by clonic seizures, and later by tonic extension, and finally by respiratory arrest and death in 80% or more of the mice. In vehicle-treated mice, the entire sequence of seizures to respiratory arrest lasts approximately 15-20 seconds.
The incidence of all the seizure phases in the drug-treated and vehicle-treated mice was recorded, and the occurrence of tonic seizures were used for calculating anticonvulsant ED50 values by probit analysis. Mice were used only once for testing at each time and dose point.

In series [4] the test system is Na+ channels in SCG neurons. Description: Sodium current in superior cervical ganglion neurons (whole-cell voltage clamp). Type of series: cell-based, rat. The settings on record: at 10 μM. The protocol: as §1, §2, §3, §4
Series [5] has as its target T2, N-type Ca2+ channels in cultured superior cervical ganglion (SCG) neurons (Rattus norvegicus, UniProt Q02294).
T2 construct: from tissue
Description: Calcium current in superior cervical ganglion neurons (whole-cell voltage clamp). Type of series: cell-based. The settings on record: for inhibition at 1 µM: read-out: SCG Ca, % blockage at 1 μM; for inhibition at 10 µM: read-out: SCG Ca, % blockage at 10 μM. The protocol: as §1, §2, §3
After obtaining a whole-cell recording, Ca^2+ channels were elicited by stepping to test potentials between −40 and +20 mV for 120 msec from the holding potential of −90 mV to determine if the amplitude of the current and clamp control were adequate for evaluation of drug effects. Ca^2+ channel currents were evoked by stepping from a holding potentials between −65 mV and −55 mV to a test potential of +20 mV for 150 msec every 40 seconds. The amplitude of the Ca^2+ channel currents were compared before and during drug application and drug effects expressed as percent inhibition of the amplitude of control currents.

Series [6] has as its system electroshock-induced tonic extensor seizures in CF-1 mice. Description: Maximal electroshock testing. The settings on record: protected/tested. In kind it is in vivo. How it is done:
Maximal Electroshock Testing
In this test, four representative compounds were tested for their anticonvulsant effects using the procedure described below.
Male CF-1 mice, 20 to 28 g, from Charles River Laboratories, Portage, Mich. were used in all experiments. Groups of 10 mice each were given various intravenous doses of test compound in aqueous solution with 10% Emulphan® Surfactant in a volume of 10 mL/kg of body weight. Electroshock was delivered by corneal electrodes with 60 Hz alternating current (50 mA root-mean-squared for 0.2 seconds) using a constant-current stimulator (Wahlquist Instruments, Salt Lake City, Utah). Untreated or saline-treated mice reliably had tonic extensor seizures with rearward extension of hindlimbs more than 3 seconds. These methods are similar to those published by Krall R. L.; Penry J. K.; White B. G.; and Kupferberg H. K. Antiepileptic Drug Development II. Anticonvulsant Drug Screening, Epilepsia, 1978; 19:409-428.

Series [7] deals with T3, L-type calcium channels in A10 cells (Rattus norvegicus, UniProt P22002).
T3 construct: which endogenously expresses L-type calcium channels; host or cells: A10 rat embryonic thoracic aorta smooth muscle cells
Nature of the series: L-type Ca2+ channel blocking potency in A10 cells (FLIPR). In kind it is cell-based. The settings on record: read-out: FLPA10 IC50. An outline of the steps:
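Rat A10 aortic smooth-muscle cells endogenously expressing L-type channels were loaded with Oregon Green BAPTA-1 and preincubated with compound for 5 min at 35 °C. Cells were then depolarized with 140 mM KCl buffer. Summed fluorescence above basal over 120 s gave % inhibition versus buffer-treated stimulated wells, with zero influx defined by 1.0×10^−6 M nitrendipine.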

Where [8] appears, read: 5 μM nitrendipine present, read-out: IMR32 IC50.
The mark [9] stands for this setting: 10 mg/Kg iv, 15 min posttreatment.
Where [10] appears, read: estimated from two data points, read-out: IMR32 IC50 (estimated IC50 values based on two data points).

Structures can show the parent of a compound that is named as a salt. Where two headings read alike, the source gives them in different places.

T3 sequence (P22002 whole entry): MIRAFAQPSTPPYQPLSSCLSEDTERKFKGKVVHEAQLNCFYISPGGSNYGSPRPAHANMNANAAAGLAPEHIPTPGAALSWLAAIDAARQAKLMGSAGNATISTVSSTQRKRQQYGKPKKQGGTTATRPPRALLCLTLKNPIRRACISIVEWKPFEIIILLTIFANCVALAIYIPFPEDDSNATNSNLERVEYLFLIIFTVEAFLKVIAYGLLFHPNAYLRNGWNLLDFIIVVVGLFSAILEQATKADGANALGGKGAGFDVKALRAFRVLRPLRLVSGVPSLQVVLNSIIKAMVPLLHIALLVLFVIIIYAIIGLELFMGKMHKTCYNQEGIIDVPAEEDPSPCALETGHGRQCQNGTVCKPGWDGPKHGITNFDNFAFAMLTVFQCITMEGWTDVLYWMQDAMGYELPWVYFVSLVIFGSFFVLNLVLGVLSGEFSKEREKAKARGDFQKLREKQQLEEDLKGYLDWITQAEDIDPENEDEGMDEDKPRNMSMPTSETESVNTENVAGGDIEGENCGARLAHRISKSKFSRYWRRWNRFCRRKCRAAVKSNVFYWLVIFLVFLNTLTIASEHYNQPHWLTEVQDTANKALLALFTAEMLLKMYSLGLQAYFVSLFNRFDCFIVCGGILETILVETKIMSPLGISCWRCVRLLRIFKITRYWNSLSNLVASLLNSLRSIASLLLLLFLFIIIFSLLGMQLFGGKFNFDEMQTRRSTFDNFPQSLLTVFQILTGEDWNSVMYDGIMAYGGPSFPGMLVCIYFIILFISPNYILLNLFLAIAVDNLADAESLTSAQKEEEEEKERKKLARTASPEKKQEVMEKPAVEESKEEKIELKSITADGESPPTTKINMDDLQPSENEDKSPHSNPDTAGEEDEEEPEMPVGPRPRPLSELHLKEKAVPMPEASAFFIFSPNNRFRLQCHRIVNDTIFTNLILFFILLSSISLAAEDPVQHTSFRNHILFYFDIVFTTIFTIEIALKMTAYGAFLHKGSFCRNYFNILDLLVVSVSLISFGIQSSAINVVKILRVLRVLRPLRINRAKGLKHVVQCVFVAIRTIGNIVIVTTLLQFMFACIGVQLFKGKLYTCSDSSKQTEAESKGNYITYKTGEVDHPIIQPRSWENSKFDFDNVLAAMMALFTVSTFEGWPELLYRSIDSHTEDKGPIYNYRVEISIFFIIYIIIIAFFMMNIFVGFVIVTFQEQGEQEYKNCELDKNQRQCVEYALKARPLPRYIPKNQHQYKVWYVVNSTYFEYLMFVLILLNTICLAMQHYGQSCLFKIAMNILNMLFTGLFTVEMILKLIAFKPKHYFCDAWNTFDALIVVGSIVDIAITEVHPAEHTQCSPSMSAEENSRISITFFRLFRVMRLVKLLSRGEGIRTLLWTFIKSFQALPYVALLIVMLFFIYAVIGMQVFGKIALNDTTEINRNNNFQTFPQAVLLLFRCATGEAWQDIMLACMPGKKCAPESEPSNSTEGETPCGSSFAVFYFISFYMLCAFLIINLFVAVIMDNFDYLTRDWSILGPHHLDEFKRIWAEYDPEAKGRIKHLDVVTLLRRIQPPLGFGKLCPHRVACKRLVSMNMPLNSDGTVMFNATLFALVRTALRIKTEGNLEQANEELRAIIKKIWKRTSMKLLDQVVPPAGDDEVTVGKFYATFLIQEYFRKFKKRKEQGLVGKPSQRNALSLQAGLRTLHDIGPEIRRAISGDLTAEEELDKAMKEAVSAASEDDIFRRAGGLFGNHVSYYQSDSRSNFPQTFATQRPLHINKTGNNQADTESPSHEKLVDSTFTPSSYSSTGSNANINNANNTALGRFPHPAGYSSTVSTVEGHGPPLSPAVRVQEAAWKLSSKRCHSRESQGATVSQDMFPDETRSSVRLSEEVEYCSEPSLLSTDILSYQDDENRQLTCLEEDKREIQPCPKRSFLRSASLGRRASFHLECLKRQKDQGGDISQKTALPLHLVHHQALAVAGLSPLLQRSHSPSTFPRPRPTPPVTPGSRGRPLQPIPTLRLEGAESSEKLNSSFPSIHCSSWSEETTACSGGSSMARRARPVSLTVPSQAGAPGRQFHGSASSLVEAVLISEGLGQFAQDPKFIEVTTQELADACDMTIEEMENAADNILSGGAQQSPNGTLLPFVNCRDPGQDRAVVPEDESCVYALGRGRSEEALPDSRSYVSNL
T3 sequence (P54290 25-944 partner limits assumed): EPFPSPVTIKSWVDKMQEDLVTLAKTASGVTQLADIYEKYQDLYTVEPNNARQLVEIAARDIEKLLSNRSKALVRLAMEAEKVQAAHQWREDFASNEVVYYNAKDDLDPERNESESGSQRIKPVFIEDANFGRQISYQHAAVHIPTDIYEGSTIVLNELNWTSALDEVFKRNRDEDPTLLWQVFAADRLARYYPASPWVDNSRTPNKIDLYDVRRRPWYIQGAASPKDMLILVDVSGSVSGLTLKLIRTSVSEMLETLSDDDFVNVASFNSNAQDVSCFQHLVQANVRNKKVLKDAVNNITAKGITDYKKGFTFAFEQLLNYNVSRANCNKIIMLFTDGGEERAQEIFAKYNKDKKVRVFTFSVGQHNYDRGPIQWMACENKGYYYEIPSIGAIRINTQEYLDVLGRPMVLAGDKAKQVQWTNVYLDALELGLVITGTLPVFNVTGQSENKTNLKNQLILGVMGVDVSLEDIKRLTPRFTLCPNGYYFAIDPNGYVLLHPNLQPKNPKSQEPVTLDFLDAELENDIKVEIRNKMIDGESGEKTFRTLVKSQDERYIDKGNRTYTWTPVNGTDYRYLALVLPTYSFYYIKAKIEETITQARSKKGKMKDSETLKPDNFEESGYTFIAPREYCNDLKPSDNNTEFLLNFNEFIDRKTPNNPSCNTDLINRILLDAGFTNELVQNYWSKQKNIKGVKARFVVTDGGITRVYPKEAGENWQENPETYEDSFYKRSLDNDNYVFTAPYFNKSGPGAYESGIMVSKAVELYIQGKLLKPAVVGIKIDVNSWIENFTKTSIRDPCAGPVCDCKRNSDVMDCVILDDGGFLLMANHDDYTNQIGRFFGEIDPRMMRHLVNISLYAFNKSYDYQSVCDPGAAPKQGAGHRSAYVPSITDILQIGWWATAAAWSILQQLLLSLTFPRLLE
T3 sequence (P54290 945-1091 partner limits assumed): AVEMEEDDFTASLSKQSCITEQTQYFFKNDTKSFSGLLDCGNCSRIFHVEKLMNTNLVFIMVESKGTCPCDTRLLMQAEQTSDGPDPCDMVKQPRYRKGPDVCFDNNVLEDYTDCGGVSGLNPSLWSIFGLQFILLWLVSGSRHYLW
T3 sequence (P54287 whole entry partner): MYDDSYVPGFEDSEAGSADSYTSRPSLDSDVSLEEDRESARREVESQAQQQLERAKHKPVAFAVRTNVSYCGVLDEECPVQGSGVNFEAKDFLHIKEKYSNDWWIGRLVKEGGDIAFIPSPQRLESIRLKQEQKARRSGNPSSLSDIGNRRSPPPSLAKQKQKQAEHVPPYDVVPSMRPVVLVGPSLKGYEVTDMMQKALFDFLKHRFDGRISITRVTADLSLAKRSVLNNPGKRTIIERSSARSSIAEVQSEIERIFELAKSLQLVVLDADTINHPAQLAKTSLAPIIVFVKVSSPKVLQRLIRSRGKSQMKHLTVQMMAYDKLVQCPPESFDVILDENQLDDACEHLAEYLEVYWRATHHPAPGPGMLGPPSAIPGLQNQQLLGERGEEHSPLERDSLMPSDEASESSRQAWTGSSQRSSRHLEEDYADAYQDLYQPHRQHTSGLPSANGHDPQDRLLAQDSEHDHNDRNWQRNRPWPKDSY

In the case of `CC(C)C[C@H](NC(=O)N1CCCCCC1)C(=O)NCCCC(c1ccc(F)cc1)c1ccc(F)cc1` [Example 1, (S)-Azepane-1-carboxylic acid {1-[4,4-bis-(4-fluoro-phenyl)-butylcarbamoyl]-3-methyl-butyl}-amide], the IC50 – broadly, the concentration that inhibits the measured activity by half – in series [1] (setting [8]) was 820 nM. Also, in series [2], the “SCG K, % blockage at 1 μM” value is 4.3% @ 1 and the “SCG K, % blockage at 10 μM” value came to 3% @ 10. Further, the responders at 30 mg/kg in series [3] (0.25 h, 15 min posttreatment) was 60%. Also, the “SCG Na, % blockage at 10 μM” value in series [4] is 14% @ 10. For the same compound, in series [5], the inhibition at 1 µM turned out to be 17% and the inhibition at 10 µM is 16%.
Take `CC(C)C[C@H](NC(=O)N1CCCCCC1)C(=O)NC(c1ccccc1)c1ccccc1` [Example 3, (S)-Azepane-1-carboxylic acid [1-(benzhydryl-carbamoyl)-3-methyl-butyl]-amide]: the melting point (as a rule, the temperature, or range, at which the solid turns liquid) was 180 to 181 °C. The IC50 in series [1] (setting [8]) was determined as 4400 nM. Besides, in series [2], the “SCG K, % blockage at 10 μM” value was 48% @ 10. In series [4], the “SCG Na, % blockage at 10 μM” value is 5% @ 10. In series [5], the inhibition at 10 µM is 33%.
For the compound `CC(C)=CCN(C)[C@@H](CC(C)C)C(=O)NCCCC(c1ccc(F)cc1)c1ccc(F)cc1` [Example 13, (S)-4-Methyl-2-[methyl-(3-methyl-but-2-enyl)-amino]-pentanoic acid [4,4-bis-(4-fluoro-phenyl)-butyl]-amide monohydrochloride], the IC50 in series [1] (setting [8]) is 520 nM. Moreover, in series [2], the “SCG K, % blockage at 1 μM” value turned out to be 10% @ 1 and the “SCG K, % blockage at 10 μM” value stood at 48% @ 10. Besides, in series [6] (setting [9]), the “Number of Mice Protected from Tonic Convulsions” value is 3/5. In addition, in series [4], the “SCG Na, % blockage at 10 μM” value turned out to be 95% @ 10. In addition, in series [5], the inhibition at 1 µM came out at 23% and the inhibition at 10 µM was 77%.
Consider `CC(C)C[C@H](NC1CCCCC1)C(=O)NCCCC(c1ccc(F)cc1)c1ccc(F)cc1.Cl` [Example 15, (S)-2-Cyclohexylamino-4-methyl-pentanoic acid [4,4-bis-(4-fluoro-phenyl)-butyl]-amide monohydrochloride], for which, in series [1], the inhibition at 1 µM stood at 62%. Also, in series [1], the inhibition at 10 µM came to 87%. Also, the responders at 30 mg/kg was 100% in series [3] (0.25 h, 15 min posttreatment) and 100% in series [3] (0.75 h, 45 min posttreatment). The “Number of Mice Protected from Tonic Convulsions” value in series [6] (setting [9]) is listed as 5/5; in series [6] (10 mg/Kg iv, 45 min posttreatment) it was 2/5; in series [6] (30 mg/Kg iv, 15 min posttreatment), 3/3; in series [6] (30 mg/Kg iv, 45 min posttreatment), 5/5.
Regarding `CC(C)C[C@H](NC1CCCCC1)C(=O)N1CCN(C(c2ccc(F)cc2)c2ccc(F)cc2)CC1` [Example 38, (S)-1-{4-[Bis-(4-fluoro-phenyl)-methyl]-piperazin-1-yl}-2-cyclohexylamino-4-methyl-pentan-1-one], the half-inhibitory concentration (IC50) in series [7] is 610 nM; in series [1] (setting [10]), 1200 nM. Moreover, the responders at 30 mg/kg is 80% in series [3] (0.25 h, 15 min posttreatment) and 20% in series [3] (0.75 h, 45 min posttreatment).
Take `CC(C)C[C@@H](C(=O)N1CCN(C(c2ccc(F)cc2)c2ccc(F)cc2)CC1)N(C)C1CCCCC1` [Example 40, (S)-1-{4-[Bis-(4-fluoro-phenyl)-methyl]-piperazin-1-yl}-2-(cyclohexyl-methyl-amino)-4-methyl-pentan-1-one]: the 50% inhibitory concentration (IC50) in series [7] was 500 nM; in series [1] (setting [10]), 700 nM. Besides, the responders at 30 mg/kg in series [3] (0.25 h, 15 min posttreatment) was 0%; in series [3] (0.75 h, 45 min posttreatment) it was 0%.
As for `CC(C)CCN(C)[C@@H](CC(C)C)C(=O)N1CCN(C(c2ccc(F)cc2)c2ccc(F)cc2)CC1` [Example 46, 1-{4-[Bis-(4-fluoro-phenyl)-methyl]-piperazin-1-yl}-4-methyl-2-[methyl-(3-methyl-butyl)-amino]-pentan-1-one dihydrochloride], the figures for the half-maximal inhibitory concentration (IC50) in series [7] and in series [1] (setting [10]) were 1800 nM and 330 nM, respectively. The responders at 10 mg/kg was 80% in series [3] (0.25 h, 15 min posttreatment) and 20% in series [3] (0.75 h, 45 min posttreatment).
In the case of `N[C@@H](Cc1ccccc1)C(=O)N1CCN(C(c2ccc(F)cc2)c2ccc(F)cc2)CC1` [Example 52, (S)-2-Amino-1-(4-[bis-(4-fluoro-phenyl)-methyl]-piperazin-1-yl}-3-phenyl-propan-1-one], in series [7], the 50% inhibitory concentration (IC50) stood at 430 nM. Also, in series [1], the inhibition at 1 µM was 23% and the inhibition at 10 µM was 99%. Also, the responders at 30 mg/kg in series [3] (0.25 h, 15 min posttreatment) was 100%. Besides, in series [3] (0.75 h, 45 min posttreatment), the responders at 30 mg/kg is 80%.

(Values after patent US6458781B1, “Substituted diarylalkyl amides as calcium channel antagonists” (priority 1998, dated 2002).)
